Test results: US11730720B2, “ALK5 inhibitors” (THERAVANCE BIOPHARMA R&D IP, LLC, priority 2018, dated 2023)

Columns and labels:
[1] = tested on: TGF-β-stimulated SMAD3 phosphorylation in BEAS-2B cells; test: Cellular ALK5 potency assay, inhibition of TGF-β stimulated pSMAD3 formation in BEAS-2B cells; type: cell-based; settings: Homo sapiens, inhibition of TGF-β (10 ng/mL) stimulated pSMAD3 formation, 1 hour compound incubation, read-out: BEAS2B pIC50 (converted)
In short: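 Phospho-SMAD3 was quantified by AlphaLISA in lysates of human lung epithelial BEAS-2B cells. Compound was added 1 h (37 °C, HEPES/BSA-supplemented HBSS) before a 30 min challenge with 10 ng/mL TGF-β. Values are pIC50 relative to stimulated cells without compound.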

[2] = biological target: T1, recombinant human ALK5 (TGF-βR1) protein (Homo sapiens, UniProt P36897); test: Biochemical ALK5 (TGF-βR1) assay to measure pKi (LANCE Ultra ULight kinase assay); settings: apparent pKi, converted from pIC50 using the Cheng-Prusoff equation
T1 construct: purchased Life Technologies PR9075A
T1 sequence (P36897 34-503): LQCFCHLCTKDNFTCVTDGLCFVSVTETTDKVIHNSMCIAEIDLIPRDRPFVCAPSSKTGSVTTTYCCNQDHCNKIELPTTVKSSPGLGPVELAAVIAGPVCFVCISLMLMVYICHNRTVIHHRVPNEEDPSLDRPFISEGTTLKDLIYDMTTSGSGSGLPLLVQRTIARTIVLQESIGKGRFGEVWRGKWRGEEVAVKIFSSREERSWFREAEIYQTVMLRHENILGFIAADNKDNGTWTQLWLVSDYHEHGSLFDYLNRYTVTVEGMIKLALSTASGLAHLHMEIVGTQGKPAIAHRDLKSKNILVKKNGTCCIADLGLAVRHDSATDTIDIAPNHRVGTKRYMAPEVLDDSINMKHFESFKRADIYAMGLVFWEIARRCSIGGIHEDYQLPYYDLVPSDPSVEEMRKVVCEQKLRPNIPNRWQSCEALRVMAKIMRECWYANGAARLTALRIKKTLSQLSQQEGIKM
In short: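 TR-FRET kinase format: compound dose range 10 μM–25 pM equilibrated 60 min with human ALK5 and ULight-labelled topoisomerase 2α peptide in HEPES/MgCl2 buffer pH 7.5 with DTT. Reaction started with ATP (125 μM stock, 5× final), 60 min at 37° C, stopped with EDTA/Eu-anti-phospho antibody; pKi derived from pIC50 via Cheng-Prusoff.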

Ki [2] [nM]	Structure (SMILES)	IC50 [1] [nM]
3.98 to 31.6	Fc1ccc(Cl)cc1-c1[nH]cnc1-c1ccc2ncc(Nc3ccc(N4CCN(Cc5ccccc5)CC4)cn3)cc2n1 [Compound 2-27, N-[5-(4-benzylpiperazin-1-yl)-2-pyridyl]-6-[5-(5-chloro-2-fluoro-phenyl)-1H-imidazol-4-yl]-1,5-naphthyridin-3-amine]	25.1 to 158
0.0398 to 0.316	NC(=O)C1(N2CCN(c3cnc4ccc(-c5c[nH]nc5-c5cc(Cl)ccc5F)nc4c3)CC2)CCCC1 [Compound 1-32, 1-[4-[6-[3-(5-chloro-2-fluoro-phenyl)-1H-pyrazol-4-yl]-1,5-naphthyridin-3-yl]piperazin-1-yl]cyclopentanecarboxamide]	25.1 to 158
0.0398 to 0.316	NCCN1CCN(c2cnc3ccc(-c4c[nH]nc4-c4cc(Cl)c(F)cc4F)nc3c2)CC1 [Compound 6-36, 2-[4-[6-[3-(5-chloro-2,4-difluoro-phenyl)-1H-pyrazol-4-yl]-1,5-naphthyridin-3-yl]piperazin-1-yl]ethanamine]	25.1 to 158
0.0398 to 0.316	CC(C)NCCN1CCN(c2cnc3ccc(-c4c[nH]nc4-c4cc(Cl)c(F)cc4F)nc3c2)CC1 [Compound 6-39, N-[2-[4-[6-[3-(5-chloro-2,4-difluoro-phenyl)-1H-pyrazol-4-yl]-1,5-naphthyridin-3-yl]piperazin-1-yl]ethyl]propan-2-amine]	25.1 to 158
0.0398 to 0.316	Fc1ccc(-c2n[nH]cc2-c2ccc3ncc(-c4cn[nH]c4)cc3n2)c(F)c1 [Compound 10-1, 2-(3-(2,4-difluorophenyl)-1H-pyrazol-4-yl)-7-(1H-pyrazol-4-yl)-1,5-naphthyridine]	≤ 20
0.398 to 3.16	C[C@@H]1CN(CCNc2cnc3ccc(-c4nc[nH]c4-c4cccc(Cl)c4)cc3c2)C[C@H](C)N1 [Compound 24-3, 6-[5-(3-chlorophenyl)-1H-imidazol-4-yl]-N-[2-[(3R,5S)-3,5-dimethylpiperazin-1-yl]ethyl]quinolin-3-amine]	25.1 to 158
0.398 to 3.16	Fc1ccc(Cl)cc1-c1nnn(Cc2ccccc2)c1-c1ccc2ncccc2n1 [Compound 4-1, 2-(1-benzyl-4-(5-chloro-2-fluorophenyl)-1H-1,2,3-triazol-5-yl)-1,5-naphthyridine]	200 to 1260
0.0398 to 0.316	Fc1ccc(-c2n[nH]cc2-c2ccc3ncc(C4=CCC(NCc5ccccc5)CC4)cc3n2)cc1F (centres unmarked) [Compound 8-26, N-benzyl-4-[6-[3-(3,4-difluorophenyl)-1H-pyrazol-4-yl]-1,5-naphthyridin-3-yl]cyclohex-3-en-1-amine]	25.1 to 158
0.398 to 3.16	CN1CCN(C2CCN(c3cnc4ccc(-c5c[nH]nc5-c5cc(Cl)ccc5F)cc4c3)CC2)CC1 [Compound 16-4, 6-[3-(5-chloro-2-fluoro-phenyl)-1H-pyrazol-4-yl]-3-[4-(4-methylpiperazin-1-yl)-1-piperidyl]quinoline]	25.1 to 158
0.0398 to 0.316	CC(C)N1CCN(c2ccc(Nc3cnc4ccc(-c5c[nH]nc5-c5cc(Cl)ccc5F)nc4c3)nc2)CC1 [Compound 1-30, 6-(3-(5-chloro-2-fluorophenyl)-1H-pyrazol-4-yl)-N-(5-(4-isopropylpiperazin-1-yl)pyridin-2-yl)-1,5-naphthyridin-3-amine]	25.1 to 158
0.0398 to 0.316	O=C(O)CC1CNCCN1CCNc1cnc2ccc(-c3nc[nH]c3-c3cc(Cl)ccc3F)nc2c1 (centres unmarked) [Compound 2-34, 2-[1-[2-[[6-[5-(5-chloro-2-fluoro-phenyl)-1H-imidazol-4-yl]-1,5-naphthyridin-3-yl]amino]ethyl]piperazin-2-yl]acetic acid]	200 to 1260
≤ 0.0316	CNC1CCN(c2cnc3ccc(-c4nc[nH]c4-c4cc(Cl)ccc4F)nc3c2)CC1 [Compound 2-9, 1-[6-[5-(5-chloro-2-fluoro-phenyl)-1H-imidazol-4-yl]-1,5-naphthyridin-3-yl]-N-methyl-piperidin-4-amine]	25.1 to 158
0.0398 to 0.316	Fc1cc(F)c(-c2n[nH]cc2-c2ccc3ncc(-c4cn(Cc5cnc6c(c5)CNCC6)nn4)cc3n2)cc1Cl [Compound 6-63, 2-[3-(5-chloro-2,4-difluoro-phenyl)-1H-pyrazol-4-yl]-7-[1-(5,6,7,8-tetrahydro-1,6-naphthyridin-3-ylmethyl)triazol-4-yl]-1,5-naphthyridine]	25.1 to 158
≤ 0.0316	Fc1ccc(-c2n[nH]cc2-c2ccc3ncc(-c4cnn(CC5CNC5)c4)cc3n2)cc1F [Compound 8-15, 7-[1-(azetidin-3-ylmethyl)pyrazol-4-yl]-2-[3-(3,4-difluorophenyl)-1H-pyrazol-4-yl]-1,5-naphthyridine]	25.1 to 158
0.0398 to 0.316	CNC(=O)C1CN(c2cnc3ccc(-c4c[nH]nc4-c4cc(Cl)ccc4F)nc3c2)CCN1 (racemic) [Compound 1-51, rac-(2R)-4-[6-[3-(5-chloro-2-fluoro-phenyl)-1H-pyrazol-4-yl]-1,5-naphthyridin-3-yl]-N-methyl-piperazine-2-carboxamide]	25.1 to 158
3.98 to 31.6	COCc1cccc(-c2n[nH]cc2-c2ccc3ncc(N4CCC(N(C)C)CC4)cc3n2)c1 [Compound 14-7, 1-[6-[3-[3-(methoxymethyl)phenyl]-1H-pyrazol-4-yl]-1,5-naphthyridin-3-yl]-N,N-dimethyl-piperidin-4-amine]	25.1 to 158
0.0398 to 0.316	CC(C)N1CCN(CCNc2cnc3ccc(-c4nc[nH]c4-c4cc(Cl)c(F)cc4F)nc3c2)CC1 [Compound 7-2, 6-[5-(5-chloro-2,4-difluoro-phenyl)-1H-imidazol-4-yl]-N-[2-(4-isopropylpiperazin-1-yl)ethyl]-1,5-naphthyridin-3-amine]	25.1 to 158
≤ 0.0316	CCOC(=O)Cn1cc(-c2cnc3ccc(-c4c[nH]nc4-c4cc(Cl)ccc4F)nc3c2)nn1 [Compound 1-103, ethyl 2-[4-[6-[3-(5-chloro-2-fluoro-phenyl)-1H-pyrazol-4-yl]-1,5-naphthyridin-3-yl]triazol-1-yl]acetate]	25.1 to 158
≤ 0.0316	Fc1ccc(Cl)cc1-c1n[nH]cc1-c1ccc2ncc(-c3cn(Cc4c[nH]cn4)nn3)cc2n1 [Compound 1-111, 2-[3-(5-chloro-2-fluoro-phenyl)-1H-pyrazol-4-yl]-7-[1-(1H-imidazol-4-ylmethyl)triazol-4-yl]-1,5-naphthyridine]	25.1 to 158
0.0398 to 0.316	CN(CC1CNC1)c1cnc2ccc(-c3c[nH]nc3-c3cc(Cl)ccc3F)nc2c1 [Compound 1-41, N-(azetidin-3-ylmethyl)-6-[3-(5-chloro-2-fluoro-phenyl)-1H-pyrazol-4-yl]-N-methyl-1,5-naphthyridin-3-amine]	25.1 to 158
0.0398 to 0.316	Fc1cc(F)c(-c2n[nH]cc2-c2ccc3ncc(N4CC(N5CCCCC5)C4)cc3n2)cc1Cl [Compound 6-14, 2-(3-(5-chloro-2,4-difluorophenyl)-1H-pyrazol-4-yl)-7-(3-(piperidin-1-yl)azetidin-1-yl)-1,5-naphthyridine]	25.1 to 158
0.0398 to 0.316	COC(=O)CC1CN(c2cnc3ccc(-c4c[nH]nc4-c4cc(Cl)ccc4F)nc3c2)CCN1 (centres unmarked) [Compound 1-136, methyl 2-[4-[6-[3-(5-chloro-2-fluoro-phenyl)-1H-pyrazol-4-yl]-1,5-naphthyridin-3-yl]piperazin-2-yl]acetate]	≤ 20
